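A five-concentration, 48-hour dose response in 96-well plates underlies each endpoint, interpolated linearly between surrounding concentrations. TGI marks complete inhibition of growth.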
Tests used:
Test in all cases: NCI tumour cell line growth inhibition, 48 h
K-562 leukemia = test system: K-562 leukemia
HL-60(TB) leukemia = test system: HL-60(TB) leukemia
TK-10 renal = test system: TK-10 renal
A498 renal = test system: A498 renal
NCI/ADR-RES ovarian = test system: NCI/ADR-RES ovarian
RXF 393 renal = test system: RXF 393 renal
CCRF-CEM leukemia = test system: CCRF-CEM leukemia
SK-MEL-2 melanoma = test system: SK-MEL-2 melanoma
EKVX NSCLC = test system: EKVX NSCLC
COLO 205 colon = test system: COLO 205 colon
HS 578T breast = test system: HS 578T breast
MALME-3M melanoma = test system: MALME-3M melanoma
PC-3 prostate = test system: PC-3 prostate
NCI-H23 lung = test system: NCI-H23 lung
BT-549 breast = test system: BT-549 breast
ACHN renal = test system: ACHN renal
MDA-N = test system: MDA-N
HCC-2998 colon = test system: HCC-2998 colon
SNB-75 CNS = test system: SNB-75 CNS
HOP-92 NSCLC = test system: HOP-92 NSCLC
KM12 colon = test system: KM12 colon
SF-268 CNS = test system: SF-268 CNS
HCT-116 colon = test system: HCT-116 colon
HCT-15 colon = test system: HCT-15 colon
UACC-257 melanoma = test system: UACC-257 melanoma
UO-31 renal = test system: UO-31 renal
OVCAR-5 ovarian = test system: OVCAR-5 ovarian
U251 CNS = test system: U251 CNS
MDA-MB-231 breast = test system: MDA-MB-231 breast
SW-620 colon = test system: SW-620 colon
A549 NSCLC = test system: A549 NSCLC
OVCAR-4 ovarian = test system: OVCAR-4 ovarian
SF-295 CNS = test system: SF-295 CNS
OVCAR-3 ovarian = test system: OVCAR-3 ovarian
SN12C renal = test system: SN12C renal
LOX IMVI melanoma = test system: LOX IMVI melanoma
CAKI-1 renal = test system: CAKI-1 renal
SNB-19 CNS = test system: SNB-19 CNS
SK-MEL-28 melanoma = test system: SK-MEL-28 melanoma
MCF7 breast = test system: MCF7 breast
OVCAR-8 ovarian = test system: OVCAR-8 ovarian
SF-539 CNS = test system: SF-539 CNS
SK-MEL-5 melanoma = test system: SK-MEL-5 melanoma
HT29 colon = test system: HT29 colon
M14 melanoma = test system: M14 melanoma
DU-145 prostate = test system: DU-145 prostate
UACC-62 melanoma = test system: UACC-62 melanoma
RPMI-8226 leukemia = test system: RPMI-8226 leukemia
NCI-H226 lung = test system: NCI-H226 lung
786-0 renal = test system: 786-0 renal
HOP-62 NSCLC = test system: HOP-62 NSCLC
SK-OV-3 ovarian = test system: SK-OV-3 ovarian
NCI-H522 lung = test system: NCI-H522 lung
T-47D breast = test system: T-47D breast
IGROV1 ovarian = test system: IGROV1 ovarian
MOLT-4 leukemia = test system: MOLT-4 leukemia
SR leukemia = test system: SR leukemia
MDA-MB-435 = test system: MDA-MB-435
NCI-H460 lung = test system: NCI-H460 lung

For `Oc1c(C(Nc2ccccn2)c2ccccc2)ccc2cccnc12` (stereo not given), the TGI (K-562 leukemia) was 24.9 µM, the TGI (HL-60(TB) leukemia) was 6.17 µM and the TGI (TK-10 renal) was > 25.9 µM. The TGI (A498 renal) was 54.8 µM, the TGI (NCI/ADR-RES ovarian) was 8.73 µM and the TGI (RXF 393 renal) was 40.1 µM. For the same molecule, the TGI (CCRF-CEM leukemia) was 3.81 µM, the TGI (SK-MEL-2 melanoma) was > 28.4 µM and the TGI (EKVX NSCLC) was 28.6 µM. For the same molecule, the TGI (COLO 205 colon) was 65.9 µM, the TGI (HS 578T breast) was > 87.9 µM and the TGI (MALME-3M melanoma) was 22 µM. The TGI (PC-3 prostate) was 30.3 µM, the TGI (NCI-H23 lung) was > 77 µM and the TGI (BT-549 breast) was > 93.4 µM. The TGI (ACHN renal) was 29.1 µM, the TGI (MDA-N) was > 100 µM and the TGI (HCC-2998 colon) was > 100 µM. The TGI (SNB-75 CNS) was > 60.9 µM, the TGI (HOP-92 NSCLC) was 9.97 µM and the TGI (KM12 colon) was > 100 µM. For the same molecule, the TGI (SF-268 CNS) was 25.3 µM, the TGI (HCT-116 colon) was 21.3 µM and the TGI (HCT-15 colon) was > 100 µM. The TGI (UACC-257 melanoma) was > 100 µM, the TGI (UO-31 renal) was 41.4 µM and the TGI (OVCAR-5 ovarian) was > 100 µM. For the same molecule, the TGI (U251 CNS) was 12.3 µM, the TGI (MDA-MB-231 breast) was 16.4 µM and the TGI (SW-620 colon) was > 100 µM. For the same molecule, the TGI (A549 NSCLC) was > 100 µM, the TGI (OVCAR-4 ovarian) was 31.9 µM and the TGI (SF-295 CNS) was > 30.3 µM. The TGI (OVCAR-3 ovarian) was 12.4 µM, the TGI (SN12C renal) was 17.4 µM and the TGI (LOX IMVI melanoma) was 37.9 µM. For the same molecule, the TGI (CAKI-1 renal) was > 87.4 µM, the TGI (SNB-19 CNS) was > 100 µM and the TGI (SK-MEL-28 melanoma) was > 100 µM. The TGI (MCF7 breast) was > 100 µM, the TGI (OVCAR-8 ovarian) was 23.7 µM and the TGI (SF-539 CNS) was 9.68 µM. The TGI (SK-MEL-5 melanoma) was 15.5 µM, the TGI (HT29 colon) was > 86.5 µM and the TGI (M14 melanoma) was > 52.6 µM. The TGI (DU-145 prostate) was > 100 µM, the TGI (UACC-62 melanoma) was 22.2 µM and the TGI (RPMI-8226 leukemia) was 29.3 µM. For the same molecule, the TGI (NCI-H226 lung) was 7.54 µM, the TGI (786-0 renal) was > 37.2 µM and the TGI (HOP-62 NSCLC) was > 68.3 µM. The TGI (SK-OV-3 ovarian) was 63.8 µM, the TGI (NCI-H522 lung) was 11.8 µM and the TGI (T-47D breast) was > 31.6 µM. The TGI (IGROV1 ovarian) was 16.3 µM, the TGI (MOLT-4 leukemia) was > 25.4 µM and the TGI (SR leukemia) was > 22.6 µM. The TGI (MDA-MB-435) was > 100 µM.
With `O=C(CCCCCNC(=O)c1ccc(Cl)cc1)NO` the TGI (K-562 leukemia) was > 100 µM, the TGI (HL-60(TB) leukemia) was 16.1 µM and the TGI (TK-10 renal) was 16.4 µM. The TGI (NCI/ADR-RES ovarian) was 5.07 µM, the TGI (RXF 393 renal) was 19.8 µM and the TGI (CCRF-CEM leukemia) was > 100 µM. For the same molecule, the TGI (SK-MEL-2 melanoma) was 7.22 µM, the TGI (EKVX NSCLC) was > 100 µM and the TGI (COLO 205 colon) was 10.5 µM. For the same molecule, the TGI (HS 578T breast) was > 100 µM, the TGI (MALME-3M melanoma) was > 100 µM and the TGI (PC-3 prostate) was 9 µM. For the same molecule, the TGI (NCI-H23 lung) was 51.5 µM, the TGI (BT-549 breast) was > 100 µM and the TGI (ACHN renal) was 41.6 µM. For the same molecule, the TGI (MDA-N) was 10.8 µM, the TGI (HCC-2998 colon) was 18.3 µM and the TGI (SNB-75 CNS) was 30.8 µM. The TGI (HOP-92 NSCLC) was 11.1 µM, the TGI (NCI-H460 lung) was 39.6 µM and the TGI (KM12 colon) was > 100 µM. For the same molecule, the TGI (SF-268 CNS) was 57.1 µM, the TGI (HCT-116 colon) was 10.7 µM and the TGI (HCT-15 colon) was > 100 µM. The TGI (UACC-257 melanoma) was 14.5 µM, the TGI (UO-31 renal) was 37.8 µM and the TGI (OVCAR-5 ovarian) was 8.43 µM. For the same molecule, the TGI (U251 CNS) was 24 µM, the TGI (MDA-MB-231 breast) was 21 µM and the TGI (SW-620 colon) was > 100 µM. The TGI (A549 NSCLC) was 81.9 µM, the TGI (OVCAR-4 ovarian) was > 100 µM and the TGI (SF-295 CNS) was 36.1 µM. The TGI (OVCAR-3 ovarian) was 13 µM, the TGI (SN12C renal) was 24.4 µM and the TGI (LOX IMVI melanoma) was 17 µM. For the same molecule, the TGI (CAKI-1 renal) was 21.1 µM, the TGI (SNB-19 CNS) was > 100 µM and the TGI (SK-MEL-28 melanoma) was > 100 µM. The TGI (MCF7 breast) was > 100 µM, the TGI (OVCAR-8 ovarian) was 86.8 µM and the TGI (SF-539 CNS) was > 100 µM. The TGI (SK-MEL-5 melanoma) was 13.9 µM, the TGI (HT29 colon) was > 100 µM and the TGI (M14 melanoma) was > 100 µM. The TGI (DU-145 prostate) was > 100 µM, the TGI (UACC-62 melanoma) was 12.1 µM and the TGI (RPMI-8226 leukemia) was > 100 µM. It also gave a TGI (NCI-H226 lung) of 71.2 µM, a TGI (786-0 renal) of 39 µM and a TGI (SK-OV-3 ovarian) of 41 µM. It also gave a TGI (NCI-H522 lung) of 15.2 µM, a TGI (T-47D breast) of 5.14 µM and a TGI (IGROV1 ovarian) of 25 µM. The TGI (MOLT-4 leukemia) was > 100 µM, the TGI (SR leukemia) was 53.7 µM and the TGI (MDA-MB-435) was 31.3 µM.
